According to PMC4059138, “Structural Basis for Multiple Sugar Recognition of Jacalin-related Human ZG16p Lectin*^([image sbox.jpg])” (The Journal of Biological Chemistry, 2014):
Read-outs that look alike come from different tables or passages of the source. Values belong to the molecule of their own block, whether it stands above or below them. No end group written: not given here. *: point of attachment. αMan = OC[C@H]1O[C@H](*)[C@@H](O)[C@@H](O)[C@@H]1O

Tests used:
[1] = molecular target: T1, 15N-labeled human ZG16p(21–167) (Homo sapiens, UniProt O60844); assay: 1H-15N HSQC NMR titration; format: binding
T1 construct: gene ZG16; residues 21-167 (signal peptide removed), 15N-labelled, E. coli pCold-PDI vector, tag removed as for the other construct; the purification says 21-159 for the same labelled protein; monomer
T1 sequence (O60844 21-167): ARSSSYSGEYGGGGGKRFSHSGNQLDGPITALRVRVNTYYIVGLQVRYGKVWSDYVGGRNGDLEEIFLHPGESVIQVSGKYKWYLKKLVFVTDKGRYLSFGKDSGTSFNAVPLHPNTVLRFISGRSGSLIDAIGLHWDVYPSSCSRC
From the text: 1H-15N HSQC NMR titration on 15N-labeled human ZG16p(21–167)

human ZG16p(21–159) [2] = molecular target: T2, human ZG16p(21–159) (Homo sapiens, UniProt O60844); assay: X-ray crystallography, soaking, […] Å; details: pH 6.5; mannose-binding pocket
T2 construct: gene ZG16; residues 21-159, expressed in E. coli as (His)6-MBP fusion, tag removed by TEV protease; monomer
T2 sequence (O60844 21-159): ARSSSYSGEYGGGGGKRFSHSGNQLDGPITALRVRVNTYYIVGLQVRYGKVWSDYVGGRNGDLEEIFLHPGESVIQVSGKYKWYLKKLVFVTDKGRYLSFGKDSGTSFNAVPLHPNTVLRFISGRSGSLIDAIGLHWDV

human ZG16p(21–159) [3] = molecular target: T2, human ZG16p(21–159); assay: X-ray crystallography, soaking, […] Å; details: pH 6.5; mannose-binding pocket; remark: listed apart in the source
[4] = molecular target: T3, Human ZG16p(21–167), 15N-labeled (human, UniProt O60844 21-167, uniformly 15N-labeled); assay: NMR titration; 1H-15N HSQC of 0.1–0.15 mM 15N-labeled ZG16p with increasing amounts of ligand; 298 K; PBS, pH 6.5, 10% D2O; Kd fitted from chemical shift changes (n = 3); details: both partners purified
T3 construct: zymogen granule protein 16 (ZG16p), human, residues 21-167; the same paragraph also calls the 15N-labeled protein ZG16p(21–159); also called zymogen granule protein 16; 15N-labeled ZG16p; source: E. coli, pCold-PDI vector, 15N-labeled Spectra 9 medium, purified (Ni-Sepharose, size exclusion chromatography)
T3 sequence (looked up): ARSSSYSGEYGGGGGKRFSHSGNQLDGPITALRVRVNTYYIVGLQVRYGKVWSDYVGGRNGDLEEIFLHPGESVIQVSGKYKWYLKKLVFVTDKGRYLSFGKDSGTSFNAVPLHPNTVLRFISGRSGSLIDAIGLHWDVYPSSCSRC

[5] = PBS pH 6.5, 10% D2O, 298 K, mannose-binding pocket

Kd ([1]; PBS pH 6.5, 10% D2O, 298 K, heparin site on flat surface adjacent to the mannose pocket): 2 ± 1 mM
Molecule: Heparin tetrasaccharide

Molecule: N[C@@H](CO[C@H]1O[C@H](CO)[C@@H](O)[C@H](O)[C@@H]1O)C(=O)O [Man-O-Ser]
X-ray crystallography, soaking, 2.1 Å (human ZG16p(21–159) [2]): structures of human ZG16p in complex with Man-O-Ser and Man-O-Thr were determined

Kd [1, 5]: 13 ± 7 mM
Molecule: OC[C@H]1O[C@H](O[C@H]2[C@H](O)[C@@H](CO)OC(O)[C@H]2O)[C@@H](O)[C@@H](O)[C@@H]1O (stereo partly shown) [Manα1–3Man]

Kd [1, 5]: 7 ± 4 mM
Molecule: OC[C@H]1O[C@@H](O[C@H]2[C@H](O)[C@@H](CO)OC(O)[C@@H]2O)[C@H](O)[C@@H](O)[C@@H]1O (stereo partly shown) [Glcβ1–3Glc]

Kd [1]: 19 ± 11 mM
Molecule: C[C@@H](O[C@H]1O[C@H](CO)[C@@H](O)[C@H](O)[C@@H]1O)[C@H](N)C(=O)O [Man-O-Thr]
X-ray crystallography, soaking, 2.7 Å (human ZG16p(21–159) [3]): structures of human ZG16p in complex with Man-O-Ser and Man-O-Thr were determined

Kd [4]: 3 mM
B1: Man-α-O-heptapeptide Val-Glu-Pro-(Man-α-O-Thr)-Ala-Val-Ala (peptide)
peptide: VEPT(αMan)AVA
notes: Glycopeptide; also called Man-O-peptide; source: synthetic peptide (solid phase, Fmoc; HPLC and Sephadex G-15)
